The first assay addresses T1, Menin-MLL (Homo sapiens, UniProt O00255).
T1 construct: His-Menin (M1-L615 end); purchased BIORTUS BP9210
T1 sequence (O00255 1-615 isoform O00255-1): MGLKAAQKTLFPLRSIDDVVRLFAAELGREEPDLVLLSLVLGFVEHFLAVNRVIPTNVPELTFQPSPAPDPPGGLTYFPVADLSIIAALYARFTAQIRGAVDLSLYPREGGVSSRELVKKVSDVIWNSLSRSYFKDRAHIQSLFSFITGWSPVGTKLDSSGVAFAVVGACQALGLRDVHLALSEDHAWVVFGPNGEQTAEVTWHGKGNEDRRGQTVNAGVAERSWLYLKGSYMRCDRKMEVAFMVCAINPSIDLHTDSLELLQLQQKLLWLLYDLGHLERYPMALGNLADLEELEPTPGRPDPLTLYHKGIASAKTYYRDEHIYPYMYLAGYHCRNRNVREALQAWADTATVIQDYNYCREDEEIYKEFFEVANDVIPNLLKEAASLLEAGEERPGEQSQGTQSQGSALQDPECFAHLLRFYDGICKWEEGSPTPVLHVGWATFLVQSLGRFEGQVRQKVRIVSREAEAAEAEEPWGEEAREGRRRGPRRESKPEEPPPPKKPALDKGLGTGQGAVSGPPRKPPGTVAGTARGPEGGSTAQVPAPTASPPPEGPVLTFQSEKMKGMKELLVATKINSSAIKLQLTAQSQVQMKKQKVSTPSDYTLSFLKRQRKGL
The assay is described as follows: Inhibitory activity against Menin-MLL binding (fluorescence polarization). Conditions: Menin-MLL IC50, fluorescence polarization; 150 nM His-Menin, 15 nM FITC-MLL; 25°C for 60 min. In short, it runs like this: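 Fluorescence polarization competition: compound and 150 nM His-tagged menin (residues M1-L615) sit 15 min at 25 °C in pH 7.5 HEPES buffer with NaCl, DTT and BSA; 15 nM FITC-labelled MLL peptide then binds for 60 min. IC50 fitted sigmoidally from mP values, duplicate wells.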
As to `CCN(C(=O)c1cc(F)ccc1-c1cc(C2CCN(C[C@H]3CC[C@@H](NS(=O)(=O)CC)CC3)C2)cc2cncn12)C(C)C` (mixture of isomers) [Example 26, N-ethyl-5-fluoro-N-isopropyl-2-[7-(1-{[(1s,4s)-4-ethanesulfonamidocyclohexyl]methyl}pyrrolidin-3-yl)imidazo[1,5-a]pyridin-5-yl]benzamide], the 50% inhibitory concentration (IC50) amounted to 0.0445 µM. The compound `CCN(C(=O)c1cc(F)ccc1-c1cc(N2CCN(C(=O)C3NC4CCC3CC4)CC2)cn2c(C=O)ncc12)C(C)C` [Example 76, N-ethyl-5-fluoro-2-(3-formyl-6-{4-[(1R,3S,4S)-2-azabicyclo[2.2.2]octan-3-carbonyl]piperazin-1-yl}imidazo[1,5-a]pyridin-8-yl)-N-(isopropyl)benzamide] had a half-inhibitory concentration (IC50) of 0.04 µM.

In the case of `CCN(C(=O)c1cc(F)ccc1-c1cc([C@@H]2CCN(C[C@]3(O)CC[C@@H](NS(=O)(=O)CC)CC3)C2)cc2c1cnn2C)C(C)C` [Compound 55-2-1, N-ethyl-5-fluoro-2-[1-methyl-6-[(3S)-1-{[(1s,4s)-4-ethanesulfonamido-1-hydroxylcyclohexyl]methyl}pyrrolidin-3-yl]-1H-indazol-4-yl]-N-(isopropyl)benzamide], the IC50 was determined as 0.343 µM. The same measure, in the same setting: the value for `CCN(C(=O)c1cc(F)ccc1-c1cc(N2CCC(NC[C@H]3CC[C@H](N4CCOC4=O)CC3)CC2)cc2c1cnn2C)C(C)C` [Example 36, N-ethyl-5-fluoro-2-{1-methyl-6-[4-({[(1r,4r)-4-(2-oxo-1,3-oxazolidin-3-yl)cyclohexyl]methyl}amino)piperidin-1-yl]-1H-indazol-4-yl}-N-(isopropyl)benzamide] was 0.156 µM; that for `CCS(=O)(=O)N[C@H]1CC[C@H](CN2CCC(c3cc(-c4ccc(F)cc4C(=O)N(CC(F)F)C(C)C)c4cnc(C)cn34)CC2)CC1` [Example 154, N-(2,2-difluoroethyl)-5-fluoro-2-[3-methyl-6-(1-{[(1r,4r)-4-ethanesulfonamidocyclohexyl]methyl}piperidin-4-yl)pyrrolo[1,2-a]pyrazin-8-yl]-N-(isopropyl)benzamide] was 0.166 µM. `COCCN(C(=O)c1cc(F)ccc1-c1cc(C2CN(C(CCCN3C[C@H]4C[C@@H]3CO4)C(C)C)C2)cn2c(C)ncc12)C(C)C` (stereo partly shown) [Example 467]: the IC50 worked out at 0.005 µM.

`Cc1nc(F)c2c(-c3ccc(F)cc3C(=O)N3CCOC[C@H]3C)cc(C3CN([C@@H](C)C4CCN(C(=O)[C@@H]5C[C@@H]5F)CC4)C3)cn12` [Example 303] had an IC50 of 0.005 µM.

The assay is the same for the next values; noted with them: fluorescence polarization; 150 nM His-Menin, 15 nM FITC-MLL; 25°C for 60 min; read-out: Menin-MLL IC50.
Consider `Cc1nc(F)c2c(-c3ccc(F)cc3C(=O)N3CCOC[C@H]3C)cc(C3CN([C@@H](C)C4CCN(C(=O)C(C)(F)F)CC4)C3)cn12` [Example 302], for which the IC50 stood at 0.022 µM. Take `CCC(C1CCN(C(C)=O)CC1)N1CC(c2cc(-c3ccc(F)cc3C(=O)N3CCOC[C@H]3C)c3c(F)nc(C)n3c2)C1` (stereo partly drawn) [Example 280, 1-(4-{1-[3-(1-fluoro-8-{4-fluoro-2-[(3R)-3-methylmorpholin-4-carbonyl]phenyl}-3-methylimidazo[1,5-a]pyridin-6-yl)azacyclobutan-1-yl]propyl}piperidin-1-yl)ethan-1-one]: the IC50 amounted to 0.0195 µM. With `CO[C@H]1CCN(CCC[C@@H](C(C)C)N2CC(c3cc(-c4ccc(F)cc4C(=O)N4CCOC[C@H]4C)c4cnn(C)c4c3)C2)C1` [Example 184-1], the IC50 was 0.805 µM. On the same count and under the same terms, the value for `CCN(C(=O)c1cc(F)ccc1-c1cc(C2CN([C@H](CCCN3CCC[C@H](O)C3)C(C)C)C2)cn2c(C)ncc12)C(C)C` [Example 327] was 0.0018 µM; that for `Cc1nc(F)c2c(-c3ccc(F)cc3C(=O)N3[C@H](C)COC[C@H]3C)cc(C3CN(CC4(O)CCOCC4)C3)cn12` [Example 220, 4-{[3-(8-{2-[(3R,5R)-3,5-dimethylmorpholin-4-carbonyl]-4-fluorophenyl}-1-fluoro-3-methylimidazo[1,5-a]pyridin-6-yl)azacyclobutan-1-yl]methyl}oxacyclohexan-4-ol] was 0.167 µM.

In the case of `CCN1CCN(CCC[C@H](C(C)C)N2CC(c3cc(-c4ccc(F)cc4C(=O)N(CC)C(C)C)c4cnn(C)c4c3)C2)CC1` [Example 394-2, N-ethyl-2-(6-{1-[(3R)-6-(4-ethylpiperazin-1-yl)-2-methylhexan-3-yl]azacyclobutan-3-yl}-1-methyl-1H-indazol-4-yl)-5-fluoro-N-(isopropyl)benzamide], the IC50 stood at 0.0032 µM. On the same count and under the same terms, the value for `CCC(=O)N1CCC([C@H](C)N2CC(c3cc(-c4ccc(F)cc4C(=O)N4CCOC[C@H]4C)c4cnc(C)n4c3)C2)CC1` [Example 319-1, 1-{4-[(1S)-1-[3-(8-{4-fluoro-2-[(3R)-3-methylmorpholin-4-carbonyl]phenyl}-3-methylimidazo[1,5-a]pyridin-6-yl)azacyclobutan-1-yl]ethyl]piperidin-1-yl}propan-1-one] was 0.039 µM. Same read-out and setting: next, `CCN(C(=O)c1cc(F)ccc1-c1cc(C2CN([C@H](CCCN3CCN(C4(C(=O)N(C)C)COC4)CC3)C(C)C)C2)cn2c(C)ncc12)C(C)C` [Example 476, 3-{4-[(4R)-4-[3-(8-{2-[ethyl(isopropyl)aminoformyl]-4-fluorophenyl}-3-methylimidazo[1,5-a]pyridin-6-yl)azacyclobutan-1-yl]-5-methylhexyl]piperazin-1-yl}-N,N-dimethyloxacyclobutan-3-formamide]: 0.0019 µM. Still for that read-out and setting: next, `Cc1nc(F)c2c(-c3ccc(F)cc3C(=O)N3CCOC[C@H]3C)cc(C3CN([C@H](CO[C@@H]4CCN(C)C4)C(C)C)C3)cn12` [Example 298, (3R)-4-[5-fluoro-2-(1-fluoro-3-methyl-6-{1-[(2S)-3-methyl-1-{[(3R)-1-methylpyrrolidin-3-yl]oxy}butan-2-yl]azacyclobutan-3-yl}imidazo[1,5-a]pyridin-8yl)benzoyl]-3-methylmorpholine]: 0.0145 µM. As for `Cc1nc(F)c2c(-c3ccc(F)cc3C(=O)N3CCOC[C@H]3C)cc(C3CN(CC4CCCOC4)C3)cn12` (stereo partly shown) [Example 235], the IC50 worked out at 0.0495 µM. On the same count and under the same terms, next, `Cc1nc(F)c2c(-c3ccc(F)cc3C(=O)N3CCOC[C@H]3C)cc(C3CN([C@@H](CN4CCNCC4)C(C)C)C3)cn12` [Example 367-1, (3R)-4-[5-fluoro-2-(1-fluoro-3-methyl-6-{1-[(2R)-3-methyl-1-(piperazin-1-yl)butan-2-yl]azacyclobutan-3-yl}imidazo[1,5-a]pyridin-8-yl)benzoyl]-3-methylmorpholine]: 0.0039 µM; `C[C@@H]1COCCN1C(=O)c1cc(F)ccc1-c1cc(C2CN(CC3CCN(C(=O)CC#N)CC3)C2)cc2c1cnn2C` [Example 173]: 0.118 µM. The same measure, in the same setting: the value for `CCN(C(=O)c1cc(F)ccc1-c1cc(C2CN([C@H](CN3CCN(CCOC)CC3)C(C)C)C2)cc2c1cnn2C)C(C)C` [Example 422] was 0.029 µM; that for `Cc1nc(F)c2c(-c3ccc(F)cc3C(=O)N3[C@H](C)COC[C@H]3C)cc(CC3CN(CC4CCOCC4)C3)cn12` [Example 229] was 0.057 µM; that for `CCN(C(=O)c1cc(F)ccc1-c1cc(C2CN([C@H](C)C3CCN(C(=O)NC)CC3)C2)cn2c(C)nc(F)c12)C(C)C` [Example 283-1] was 0.02 µM. Take `Cc1nc(F)c2c(-c3ccc(F)cc3C(=O)N3[C@H](C)COC[C@H]3C)cc(C3CN(CC4CCN(C(=O)c5cnoc5)CC4)C3)cn12` [Example 233]: the IC50 came to 0.042 µM. In the case of `Cc1nc(F)c2c(-c3ccc(F)cc3C(=O)N3CCOC[C@H]3C)cc(C3CN(CC4CCN(S(=O)(=O)C5CC5)CC4)C3)cn12` [Example 252], the IC50 was determined as 0.109 µM.

As to `CC(=O)N1CCC([C@H](C(C)C)N2CC(c3cc(-c4ccc(F)cc4C(=O)N4CCOC[C@H]4C)c4c(F)nc(C)n4c3)C2)CC1` [Example 357-1, 1-{4-[(1S)-1-[3-(1-fluoro-8-{4-fluoro-2-[(3R)-3-methylmorpholin-4-carbonyl]phenyl}-3-methylimidazo[1,5-a]pyridin-6-yl)azacyclobutan-1-yl]-2-methylpropyl]piperidin-1-yl}ethan-1-one], the IC50 turned out to be 0.0155 µM.

As to `CCN(C(=O)c1cc(F)ccc1-c1cc(C2CN([C@H](CCCN3CCN(C4(C#N)COC4)CC3)C(C)C)C2)cn2c(C)ncc12)C(C)C` [Example 487, 2-(6-{1-[(3R)-6-[4-(3-cyanooxacyclobutan-3-yl)piperazin-1-yl]-2-methylhexan-3-yl]azacyclobutan-3-yl}-3-methylimidazo[1,5-a]pyridin-8-yl)-N-ethyl-5-fluoro-N-(isopropyl)benzamide], the IC50 is 0.0022 µM.

`COC1(CN2CC(c3cc(-c4ccc(F)cc4C(=O)N4CCOC[C@H]4C)c4c(F)nc(C)n4c3)C2)CCOCC1` [Example 236]: the IC50 was determined as 0.18 µM. Consider `CCN(C(=O)c1cc(F)ccc1-c1cc(C2(F)CN(C(=O)[C@H]3N[C@@H]4CC[C@H]3C4)C2)cn2cncc12)C(C)C` [Example 34, 2-(6-{1-[(1R,3S,4S)-2-azabicyclo[2.2.1]heptan-3-carbonyl]-3-fluoroazacyclobutan-3-yl}imidazo[1,5-a]pyridin-8-yl)-N-ethyl-5-fluoro-N-(isopropyl)benzamide], for which the IC50 is 0.168 µM.
